According to patent US20230210831A1, “CHRONIC KIDNEY DISEASE TREATMENT OR PREVENTION METHOD” (Japan Tobacco Inc., priority 2019, published 2023):
“And” between values parts separate entries of the source, which are not always exact repeats. Equal entries are not always repeated.

Key:
Format in all cases: cell-based
[1] = tested on: Salmonella typhimurium TA98; assay: Ames test (reverse mutation test), TA98
Protocol: (§1) The solvent used herein was dimethyl sulfoxide (DMSO, 100 µL/plate).
(§2) The mixtures were preincubated at 37° C. for 20 minutes while shaking. […] Two plates per treatment were used.

[2] = tested on: Salmonella typhimurium TA1537; assay: Ames test (reverse mutation test), TA1537
Protocol: as §1, §2

[3] = tested on: Salmonella typhimurium TA100; assay: Ames test (reverse mutation test), TA100
Protocol: as §1, §2

[4] = tested on: Salmonella typhimurium TA1535; assay: Ames test (reverse mutation test), TA1535
Protocol: as §1, §2

[5] = tested on: Escherichia coli WP2uvrA; assay: Ames test (reverse mutation test), WP2uvrA; conditions: WP2uvrA
Protocol: as §1, §2

[6] = tested on: Salmonella typhimurium (TA98, TA1537, TA100, and TA1535) and Escherichia coli (WP2uvrA); assay: Ames test (reverse mutation test), overall conclusion over all tester strains; conditions: all bacterial tester strains, with and/or without S9 mix
Protocol: as §1, §2
Details are explained as follows.

SMILES: Nc1cc(-c2cc(F)cc(OC(F)(F)F)c2)n(-c2cncc(C(F)(F)F)c2)n1 [Metabolite 5]
- Number of revertant colonies ([1]; TA98, +S9 mix, 6.9 µg/plate): 36
- Number of revertant colonies ([1]; TA98, +S9 mix, 21 µg/plate): 38
- Number of revertant colonies ([1]; TA98, +S9 mix, 62 µg/plate): 38
- Number of revertant colonies ([1]; TA98, +S9 mix, 185 µg/plate): 33
- Number of revertant colonies ([1]; TA98, +S9 mix, 556 µg/plate): 27
- Number of revertant colonies ([1]; TA98, +S9 mix, 1667 µg/plate): 25
- Number of revertant colonies ([1]; TA98, +S9 mix, 5000 µg/plate): 17
- Number of revertant colonies ([1]; TA98, -S9 mix, 6.9 µg/plate): 29
- Number of revertant colonies ([1]; TA98, -S9 mix, 21 µg/plate): 28
- Number of revertant colonies ([1]; TA98, -S9 mix, 62 µg/plate): 29
- Number of revertant colonies ([1]; TA98, -S9 mix, 185 µg/plate): 26
- Number of revertant colonies ([1]; TA98, -S9 mix, 556 µg/plate): 24
- Number of revertant colonies ([1]; TA98, -S9 mix, 1667 µg/plate): 18
- Number of revertant colonies ([1]; TA98, -S9 mix, 5000 µg/plate): 14
- Number of revertant colonies ([2]; TA1537, +S9 mix, 6.9 µg/plate): 13
- Number of revertant colonies ([2]; TA1537, +S9 mix, 21 µg/plate): 11
- Number of revertant colonies ([2]; TA1537, +S9 mix, 62 µg/plate): 12
- Number of revertant colonies ([2]; TA1537, +S9 mix, 185 µg/plate): 12
- Number of revertant colonies ([2]; TA1537, +S9 mix, 556 µg/plate): 8
- Number of revertant colonies ([2]; TA1537, +S9 mix, 1667 µg/plate): 3
- Number of revertant colonies ([2]; TA1537, +S9 mix, 5000 µg/plate): 1
- Number of revertant colonies ([2]; TA1537, -S9 mix, 6.9 µg/plate): 8
- Number of revertant colonies ([2]; TA1537, -S9 mix, 21 µg/plate): 7
- Number of revertant colonies ([2]; TA1537, -S9 mix, 62 µg/plate): 8
- Number of revertant colonies ([2]; TA1537, -S9 mix, 185 µg/plate): 7
- Number of revertant colonies ([2]; TA1537, -S9 mix, 556 µg/plate): 2
- Number of revertant colonies ([2]; TA1537, -S9 mix, 1667 µg/plate): 3
- Number of revertant colonies ([2]; TA1537, -S9 mix, 5000 µg/plate): 2
- Number of revertant colonies ([3]; TA100, +S9 mix, 6.9 µg/plate): 134
- Number of revertant colonies ([3]; TA100, +S9 mix, 21 µg/plate): 123
- Number of revertant colonies ([3]; TA100, +S9 mix, 62 µg/plate): 108
- Number of revertant colonies ([3]; TA100, +S9 mix, 185 µg/plate): 103
- Number of revertant colonies ([3]; TA100, +S9 mix, 556 µg/plate): 99
- Number of revertant colonies ([3]; TA100, +S9 mix, 1667 µg/plate): 67
- Number of revertant colonies ([3]; TA100, +S9 mix, 5000 µg/plate): 43
- Number of revertant colonies ([3]; TA100, -S9 mix, 6.9 µg/plate): 88
- Number of revertant colonies ([3]; TA100, -S9 mix, 21 µg/plate): 91
- Number of revertant colonies ([3]; TA100, -S9 mix, 62 µg/plate): 93
- Number of revertant colonies ([3]; TA100, -S9 mix, 185 µg/plate): 92
- Number of revertant colonies ([3]; TA100, -S9 mix, 556 µg/plate): 59
- Number of revertant colonies ([3]; TA100, -S9 mix, 1667 µg/plate): 29
- Number of revertant colonies ([3]; TA100, -S9 mix, 5000 µg/plate): 12
- Number of revertant colonies ([4]; TA1535, +S9 mix, 62 µg/plate): 10
- Number of revertant colonies ([4]; TA1535, -S9 mix, 5000 µg/plate): 4
- Number of revertant colonies ([5]; +S9 mix, 6.9 µg/plate): 22
- Number of revertant colonies ([5]; +S9 mix, 21 µg/plate): 22
- Number of revertant colonies ([5]; +S9 mix, 62 µg/plate): 21
- Number of revertant colonies ([5]; +S9 mix, 185 µg/plate): 21
- Number of revertant colonies ([5]; +S9 mix, 556 µg/plate): 18
- Number of revertant colonies ([5]; +S9 mix, 1667 µg/plate): 21
- Number of revertant colonies ([5]; +S9 mix, 5000 µg/plate): 19
- Number of revertant colonies ([5]; -S9 mix, 6.9 µg/plate): 23
- Number of revertant colonies ([5]; -S9 mix, 21 µg/plate): 15
- Number of revertant colonies ([5]; -S9 mix, 62 µg/plate): 23
- Number of revertant colonies ([5]; -S9 mix, 185 µg/plate): 20
- Number of revertant colonies ([5]; -S9 mix, 556 µg/plate): 22
- Number of revertant colonies ([5]; -S9 mix, 1667 µg/plate): 19
- Number of revertant colonies ([5]; -S9 mix, 5000 µg/plate): 14
- potential to induce reverse mutations [6]: did not show potential to induce reverse mutations

SMILES: CC(C)(C)Oc1cc(F)cc(-c2cc(N)nn2C(F)(F)F)c1 [Metabolite 1]
- Number of revertant colonies ([1]; TA98, +S9 mix, 2.3 µg/plate): 35
- Number of revertant colonies ([1]; TA98, +S9 mix, 6.9 µg/plate): 31
- Number of revertant colonies ([1]; TA98, +S9 mix, 21 µg/plate): 35
- Number of revertant colonies ([1]; TA98, +S9 mix, 62 µg/plate): 28
- Number of revertant colonies ([1]; TA98, +S9 mix, 185 µg/plate): 16
- Number of revertant colonies ([1]; TA98, +S9 mix, 556 µg/plate): 15
- Number of revertant colonies ([1]; TA98, +S9 mix, 1667 µg/plate): 13
- Number of revertant colonies ([1]; TA98, +S9 mix, 5000 µg/plate): 13
- Number of revertant colonies ([1]; TA98, -S9 mix, 2.3 µg/plate): 14
- Number of revertant colonies ([1]; TA98, -S9 mix, 6.9 µg/plate): 16
- Number of revertant colonies ([1]; TA98, -S9 mix, 21 µg/plate): 14
- Number of revertant colonies ([1]; TA98, -S9 mix, 62 µg/plate): 21
- Number of revertant colonies ([1]; TA98, -S9 mix, 185 µg/plate): 9
- Number of revertant colonies ([1]; TA98, -S9 mix, 556 µg/plate): 0
- Number of revertant colonies ([1]; TA98, -S9 mix, 1667 µg/plate): 0
- Number of revertant colonies ([1]; TA98, -S9 mix, 5000 µg/plate): 0
- Number of revertant colonies ([2]; TA1537, +S9 mix, 2.3 µg/plate): 11
- Number of revertant colonies ([2]; TA1537, +S9 mix, 6.9 µg/plate): 10
- Number of revertant colonies ([2]; TA1537, +S9 mix, 21 µg/plate): 9
- Number of revertant colonies ([2]; TA1537, +S9 mix, 62 µg/plate): 6
- Number of revertant colonies ([2]; TA1537, +S9 mix, 185 µg/plate): 2
- Number of revertant colonies ([2]; TA1537, +S9 mix, 556 µg/plate): 0
- Number of revertant colonies ([2]; TA1537, +S9 mix, 1667 µg/plate): 0
- Number of revertant colonies ([2]; TA1537, +S9 mix, 5000 µg/plate): 0
- Number of revertant colonies ([2]; TA1537, -S9 mix, 2.3 µg/plate): 7
- Number of revertant colonies ([2]; TA1537, -S9 mix, 6.9 µg/plate): 10
- Number of revertant colonies ([2]; TA1537, -S9 mix, 21 µg/plate): 9
- Number of revertant colonies ([2]; TA1537, -S9 mix, 62 µg/plate): 9
- Number of revertant colonies ([2]; TA1537, -S9 mix, 185 µg/plate): 0
- Number of revertant colonies ([2]; TA1537, -S9 mix, 556 µg/plate): 0
- Number of revertant colonies ([2]; TA1537, -S9 mix, 1667 µg/plate): 0
- Number of revertant colonies ([2]; TA1537, -S9 mix, 5000 µg/plate): 0
- Number of revertant colonies ([3]; TA100, +S9 mix, 2.3 µg/plate): 120
- Number of revertant colonies ([3]; TA100, +S9 mix, 6.9 µg/plate): 119
- Number of revertant colonies ([3]; TA100, +S9 mix, 21 µg/plate): 117
- Number of revertant colonies ([3]; TA100, +S9 mix, 62 µg/plate): 104
- Number of revertant colonies ([3]; TA100, +S9 mix, 185 µg/plate): 78
- Number of revertant colonies ([3]; TA100, +S9 mix, 556 µg/plate): 59
- Number of revertant colonies ([3]; TA100, +S9 mix, 1667 µg/plate): 50
- Number of revertant colonies ([3]; TA100, +S9 mix, 5000 µg/plate): 52
- Number of revertant colonies ([3]; TA100, -S9 mix, 2.3 µg/plate): 99
- Number of revertant colonies ([3]; TA100, -S9 mix, 6.9 µg/plate): 113
- Number of revertant colonies ([3]; TA100, -S9 mix, 21 µg/plate): 124
- Number of revertant colonies ([3]; TA100, -S9 mix, 62 µg/plate): 88
- Number of revertant colonies ([3]; TA100, -S9 mix, 185 µg/plate): 38
- Number of revertant colonies ([3]; TA100, -S9 mix, 556 µg/plate): 0
- Number of revertant colonies ([3]; TA100, -S9 mix, 1667 µg/plate): 0
- Number of revertant colonies ([3]; TA100, -S9 mix, 5000 µg/plate): 0
- Number of revertant colonies ([4]; TA1535, +S9 mix, 1667 µg/plate): 4
- Number of revertant colonies ([4]; TA1535, -S9 mix, 62 µg/plate): 8
- Number of revertant colonies ([4]; TA1535, -S9 mix, 185 µg/plate): 0
- Number of revertant colonies ([4]; TA1535, -S9 mix, 556 µg/plate): 0
- Number of revertant colonies ([4]; TA1535, -S9 mix, 1667 µg/plate): 0
- Number of revertant colonies ([5]; +S9 mix, 2.3 µg/plate): 31
- Number of revertant colonies ([5]; +S9 mix, 6.9 µg/plate): 31
- Number of revertant colonies ([5]; +S9 mix, 12 µg/plate): 28
- Number of revertant colonies ([5]; +S9 mix, 21 µg/plate): 32 and 25
- Number of revertant colonies ([5]; +S9 mix, 36 µg/plate): 34
- Number of revertant colonies ([5]; +S9 mix, 62 µg/plate): 40 and 35
- Number of revertant colonies ([5]; +S9 mix, 185 µg/plate): 16 and 9
- Number of revertant colonies ([5]; +S9 mix, 556 µg/plate): 18
- Number of revertant colonies ([5]; +S9 mix, 1667 µg/plate): 9
- Number of revertant colonies ([5]; +S9 mix, 5000 µg/plate): 0
- Number of revertant colonies ([5]; -S9 mix, 2.3 µg/plate): 32
- Number of revertant colonies ([5]; -S9 mix, 6.9 µg/plate): 27
- Number of revertant colonies ([5]; -S9 mix, 21 µg/plate): 31
- Number of revertant colonies ([5]; -S9 mix, 62 µg/plate): 24
- Number of revertant colonies ([5]; -S9 mix, 185 µg/plate): 15
- Number of revertant colonies ([5]; -S9 mix, 556 µg/plate): 8
- Number of revertant colonies ([5]; -S9 mix, 1667 µg/plate): 5
- Number of revertant colonies ([5]; -S9 mix, 5000 µg/plate): 0
- potential to induce reverse mutations [6]: did not show potential to induce reverse mutations
